According to US9745335B2 (Blirt S.A., priority 2012, dated 2017):
Like-named read-outs stand apart in the source and are kept apart here.

Legend:
Format in all cases: cell-based
[1] = system: Candida tropicalis KKP 334; assay: antifungal activity in vitro, serial dilution in RPMI 1640
Protocol: (§1) For the determination of antifungal activity in vitro we used method of serial dilution in buffered medium RPMI 1640, pH 7.0, in a 96-wells microplates, according to the standard procedure (National Committee for Clinical Laboratory Standards. Reference method for broth dilution antifungal susceptibility testing of yeast, approved standard, 2nd ed. M27-A2 vol. 22 Wayne, Pa., 2002). The optical density of cells suspension was measured using a microplates reader (Victor^3, Perkin-Elmer) at the wavelength λ=531 nm (A531). On the basis of obtained results the diagrams of relation between A531 values and concentration of examined compound were made.

[2] = system: Candida albicans ATCC 10231; assay: as above
Protocol: as §1

Candida krusei DSM 6128 = assay: as above
Protocol: as §1

[3] = system: Candida lusitaniae DSM 70102; assay: as above
Protocol: as §1

[4] = system: Candida glabrata DSM 11226; assay: as above
Protocol: as §1

[5] = system: Saccharomyces cerevisiae ATCC 9763; assay: as above; conditions: RPMI 1640, pH 7.0; for Antifungal activity IC50: Saccharomyces cerevisiae ATCC 9763 (first head over MIC and IC50); for Antifungal activity MIC: Saccharomyces cerevisiae ATCC 9763
Protocol: as §1

Human erythrocytes = assay: hemotoxicity determination (hemolytic activity)
Protocol: The hemotoxicity determination was carried out by the serial dilutions method, according to the procedure described earlier (Slisz, M., et al., E., J Antibiot 57: 669-678 (2004). Human erythrocytes were suspended in the solution of saline to obtain a cell density of suspension 2×10^7/ml. Suitable amounts of diluted solutions of compounds were added to the cell suspension in tubes and were incubated at 37° C. for 30 minutes and then centrifuged (1700×g, 10 min, 4° C.). The concentration of hemoglobin in supernatant after centrifugation of erythrocytes suspension were determined by measuring the absorbance at wavelength λ=540 nm (A540). The maximum level of hemolysis was obtained after incubation of cells suspension in the presence of 0.1% Tritone X-100 (control sample). […] From these graphs, the EH50 values were read which are the interpolated concentrations of compound, for which the A540 value is exactly 50% of the A540 value measured for the control sample.

[6] = human erythrocytes, 37° C., 30 minutes

| Compound | Antifungal activity MIC [1] [µg/mL] | Antifungal activity MIC [2] [µg/mL] | Antifungal activity MIC (Candida krusei DSM 6128) [µg/mL] | Antifungal activity MIC [3] [µg/mL] | Antifungal activity MIC [4] [µg/mL] | Antifungal activity IC50 [5] [µg/mL] | Antifungal activity MIC [5] [µg/mL] | Hemotoxi EH50 (Human erythrocytes) [µg/mL] | Hemotoxi EH50 (Human erythrocytes; [6]) [µg/mL] |
| --- | --- | --- | --- | --- | --- | --- | --- | --- | --- |
| C[C@@H]1[C@H](O)[C@@H](C)/C=C/C=C/C=C/C=C/C=C/C=C/C=C/[C@H](O[C@@H]2O[C@H](C)[C@@H](O)[C@H](NC3CC(=O)N(CC(C)(C)CN(C)C)C3=O)[C@@H]2O)C[C@@H]2O[C@](O)(C[C@@H](O)C[C@@H](O)[C@H](O)CC[C@@H](O)C[C@@H](O)CC(=O)O[C@H]1C)C[C@H](O)[C@H]2C(=O)O (stereo partly shown) [Compound A7, N-{N-[3-(N,N-dimethylamino)-2,2-dimethylpropyl]succinimidyl}amphotericin B] | 2 | 4 | 4 | 1 | 4 | 0.70 | 2 | >100 |  |
| Cc1cc(C)c(N2C(=O)CC(N[C@@H]3[C@H](O)[C@H](O[C@H]4/C=C/C=C/C=C/C=C/C=C/C=C/C=C/[C@H](C)[C@@H](O)[C@@H](C)[C@H](C)OC(=O)C[C@H](O)C[C@H](O)CC[C@@H](O)[C@H](O)C[C@H](O)C[C@]5(O)C[C@H](O)[C@@H](C(=O)O)[C@H](C4)O5)O[C@H](C)[C@H]3O)C2=O)c(C)c1 (stereo partly shown) [Compound A1, N—[N-(2,4,6-trimethylphenyl)succinimidyl]amphotericin B] | 4 | 4 | 8 | 2 | 8 | 0.98 | 2 | >100 |  |
| C[C@@H]1[C@H](O)[C@@H](C)/C=C/C=C/C=C/C=C/C=C/C=C/C=C/[C@H](O[C@@H]2O[C@H](C)[C@@H](O)[C@H](NC(=S)Nc3cccnc3)[C@@H]2O)C[C@@H]2O[C@](O)(C[C@@H](O)C[C@@H](O)[C@H](O)CC[C@@H](O)C[C@@H](O)CC(=O)O[C@H]1C)C[C@H](O)[C@H]2C(=O)O [Compound A26, N-[3-(pyridin-3-yl)thioureidyl]amphotericin B] | 4 | 4 | 8 | 4 | 8 | 2.55 | 4 | >100 |  |
| C[C@@H]1[C@H](O)[C@@H](C)/C=C/C=C/C=C/C=C/C=C/C=C/C=C/[C@H](O[C@@H]2O[C@H](C)[C@@H](O)[C@H](NC(=O)[C@H](N)COC(C)(C)C)[C@@H]2O)C[C@@H]2O[C@](O)(C[C@@H](O)C[C@@H](O)[C@H](O)CC[C@@H](O)C[C@@H](O)CC(=O)O[C@H]1C)C[C@H](O)[C@H]2C(=O)O [Compound A40, N-D-(O-tert-butyl)serylamphotericin B] | 4 | 2 | 4 | 2 | 4 | 1.35 | 2 |  | >200 |
| C[C@@H]1[C@H](O)[C@@H](C)/C=C/C=C/C=C/C=C/C=C/C=C/C=C/[C@H](O[C@@H]2O[C@H](C)[C@@H](O)[C@H](NC3CC(=O)N(c4ccccc4C(C)(C)C)C3=O)[C@@H]2O)C[C@@H]2O[C@](O)(C[C@@H](O)C[C@@H](O)[C@H](O)CC[C@@H](O)C[C@@H](O)CC(=O)O[C@H]1C)C[C@H](O)[C@H]2C(=O)O (stereo partly shown) [Compound A4, N—[N-(2-tert-butylophenyl)succinimidyl]amphotericin B] | 4 | 4 | 8 | 4 | 8 | 3.11 | 4 | >100 |  |
| C[C@@H]1[C@H](O)[C@@H](C)/C=C/C=C/C=C/C=C/C=C/C=C/C=C/[C@H](O[C@@H]2O[C@H](C)[C@@H](O)[C@H](NC3CC(=O)N(c4ccc(Br)cc4)C3=O)[C@@H]2O)C[C@@H]2O[C@](O)(C[C@@H](O)C[C@@H](O)[C@H](O)CC[C@@H](O)C[C@@H](O)CC(=O)O[C@H]1C)C[C@H](O)[C@H]2C(=O)O (stereo partly shown) [Compound A3, N—[N-(4-bromophenyl)succinimidyl]amphotericin B] | 4 | 4 | 8 | 4 | 8 | 2.85 | 4 | >100 |  |
| N-D-β-naphtylalanylamphotericin B [Compound A32] | 8 | 8 | 8 | 4 | 8 | 3.01 | 4 | >100 |  |
| C[C@@H]1[C@H](O)[C@@H](C)/C=C/C=C/C=C/C=C/C=C/C=C/C=C/[C@H](O[C@@H]2O[C@H](C)[C@@H](O)[C@H](NC(=S)NCc3ccncc3)[C@@H]2O)C[C@@H]2O[C@](O)(C[C@@H](O)C[C@@H](O)[C@H](O)CC[C@@H](O)C[C@@H](O)CC(=O)O[C@H]1C)C[C@H](O)[C@H]2C(=O)O [Compound A29, N-{[3-(pyridin-4-yl)methyl]thioureidyl}amphotericin B] | 4 | 4 | 8 | 4 | 8 | 2.56 | 4 | >100 |  |
| C[C@@H]1[C@H](O)[C@@H](C)/C=C/C=C/C=C/C=C/C=C/C=C/C=C/[C@H](O[C@@H]2O[C@H](C)[C@@H](O)[C@H](NC(=O)[C@@H](N)Cc3ccc(I)cc3)[C@@H]2O)C[C@@H]2O[C@](O)(C[C@@H](O)C[C@@H](O)[C@H](O)CC[C@@H](O)C[C@@H](O)CC(=O)O[C@H]1C)C[C@H](O)[C@H]2C(=O)O [Compound A31, N-L-p-iodophenylalanylamphotericin B] | 4 | 4 | 8 | 4 | 8 | 2.52 | 4 |  | >100 |
| C[C@@H]1[C@H](O)[C@@H](C)/C=C/C=C/C=C/C=C/C=C/C=C/C=C/[C@H](O[C@@H]2O[C@H](C)[C@@H](O)[C@H](NC(=O)[C@@H](N)CSC(C)(C)C)[C@@H]2O)C[C@@H]2O[C@](O)(C[C@@H](O)C[C@@H](O)[C@H](O)CC[C@@H](O)C[C@@H](O)CC(=O)O[C@H]1C)C[C@H](O)[C@H]2C(=O)O [Compound A37, N-L-(S-tert-butyl)cystylamphotericin B] | 2 | 2 | 4 | 1 | 4 | 1.28 | 2 | >100 |  |
| C[C@@H]1[C@H](O)[C@@H](C)/C=C/C=C/C=C/C=C/C=C/C=C/C=C/[C@H](O[C@@H]2O[C@H](C)[C@@H](O)[C@H](NC3CC(=O)N(CCO)C3=O)[C@@H]2O)C[C@@H]2O[C@](O)(C[C@@H](O)C[C@@H](O)[C@H](O)CC[C@@H](O)C[C@@H](O)CC(=O)O[C@H]1C)C[C@H](O)[C@H]2C(=O)O (stereo partly shown) [Compound A8, N—[N-(2-hydroxyethyl)succinimidyl]amphotericin B] | 4 | 4 | 8 | 4 | 8 | 1.36 | 4 | >100 |  |
